{"source": "patent US20080234310A1", "about": "“Methods and Compositions for Slowing Aging” (priority 2003, published 2008)", "key": {"[1]": {"tested_on": "ion channels associated with glutamate receptors", "test": "Glutamate-induced uptake of 45Ca into rat brain synaptosomes (calcium-blocking properties)", "format": "biochemical", "conditions": "glutamate-induced 45Ca uptake, K(43/21); compound 5 μM; 5 min at 30° C.", "experimental": "Evaluation of the calcium-blocking properties of the compounds was conducted with P2-fraction of synaptosomes, which were isolated from the brain of newborn (8-11 days) rats according to the protocol described in [Bachurin et al. Neuroprotective and cognition enhancing properties of MK-801 flexible analogs. Structure-activity relationships.//Ann. N.Y. Acad. Sci., 2001, v. 939, pp. 219-235]. In this test, the ability of the compounds to inhibit a specific uptake of calcium ions via ion channels associated with glutamate receptors was determined.\nSynaptosomes were placed into the incubation buffer A (132 mM NaCl, 5 mM KCl, 5 mM HEPES) and were kept at 0° C. during the entire experiment. Aliquots of synaptosomes (50 μl) were placed in the media A, containing investigated compounds and a preparation of the radiolabeled calcium, ^45Ca. The calcium uptake was stimulated by the introduction into the media of the 20 μl of the 10 mM solution of glutamate. After a 5 min incubation at 30° C. the reaction was interrupted by a filtration through GF/B filters, which were then triple washed with the cold buffer B (145 mM KCl, 10 mM tris, 5 mM trilon B). Then, filters were subjects for the detection of the radiolabeled calcium. The measurement was conducted using a scintillation counter ‘SL-4000 Intertechnic”. The initial screening was conducted with a concentration of each compound of 5 μM. A specific calcium uptake was calculated using the following equation\nwhere: • Ca1 is a calcium uptake in a control experiment (no glutamate or test compound added); • Ca2 is a calcium uptake in the presence of glutamate only (Glutamate Induced Calcium Uptake—GICU); • Ca3 is a calcium uptake in the presence of a test compound only (no glutamate added); Ca4 is a calcium uptake in the presence of both glutamate and a test compound."}, "C57/B female mice [2]": {"tested_on": "C57/B female mice", "test": "Lifespan: amount of alive animals depending on age, Dimebon in drinking water", "format": "in vivo", "conditions": "for Amount of alive animals: 3 mg/kg daily in water", "experimental": "(§1) Experiments were conducted with C57/B female mice, starting from their age of 12 months. Mice were kept on cells, 10 animals per a cell. Both control and experimental group included 50 animals in each group. […] The day-night cycle was 12 hours.\n(§2) Prior to the experiment, daily and weekly water consumption by the animals in one cell was measured. Dimebon was added in water in such amount that each animal would consume 3 mg/kg of Dimebon per day in average. Bottles with water containing Dimebon were replaced every 7 days. Animals in the control group were receiving pure water.\n(§3) Prior to the experiment, all the animals were weighed, and an average weight was determined in every group, every cell, as well as the weight of all animals in every cell. The condition of skin, hair, and eyes were also determined by visual inspection. […] Evaluation of all these parameters was conducted on a monthly basis.\n(§4) Statistics was calculated using Student T-test and ‘ Chi-squared’ criteria.\nEvaluation of the parameter of the length of life was conducted employing methods used in demography. This parameter was a probability of death in every age group."}, "C57/B female mice [3]": {"tested_on": "C57/B female mice", "test": "Disturbances in skin-hair integument (alopecia) depending on age and Dimebon consumption", "format": "in vivo", "conditions": "for % of animals that have alopecia: 3 mg/kg daily in water", "experimental": "as §1, §2, §3, §4"}, "C57/B female mice [4]": {"tested_on": "C57/B female mice", "test": "Vision disturbances (development of age-related cataract) depending on age and Dimebon consumption", "format": "in vivo", "conditions": "for amount of animals that have cataract: 3 mg/kg daily in water", "experimental": "as §1, §2, §3, §4"}, "[5]": {"test": "Dynamics in weight of animals depending on age and Dimebon consumption", "format": "in vivo, mice", "conditions": "for average weight of animals: 3 mg/kg daily in water", "experimental": "as §1, §2, §3, §4"}}, "data": [{"compound": "2-methyl-5-(2-(6-methyl-3-pyridyl)-ethyl)-2,3,4,5-tetrahydro-1H-pyrido(4,3-b)indol sesquisulfate monohydrate [Compound 5]", "values": [{"measurement": "% Ca to control", "setting": "[1]", "value": "33.5 ± 1.5", "unit": "%"}]}, {"compound": "Cc1ccc2c(c1)c1c(n2Cc2ccccc2)CCN(C)C1.Cl.Cl", "note": "[Compound 4, 2,8-dimethyl-5-benzyl-2,3,4,5-tetrahydro-1H-pyrido(4,3-b)indol dihydrochloride]", "values": [{"measurement": "% Ca to control", "setting": "[1]", "value": "22.5 ± 3.5", "unit": "%"}]}, {"compound": "2-dimethyl-2,3,4,5-tetrahydro-1H-pyrido(4,3-b)indol methyl iodide [Compound 8]", "values": [{"measurement": "% Ca to control", "setting": "[1]", "value": "18.0 ± 2.5", "unit": "%"}]}, {"compound": "CCN1CCc2[nH]c3ccccc3c2C1", "note": "[Compound 2, 2-ethyl-2,3,4,5-tetrahydro-1H-pyrido(4,3-b)indol]", "values": [{"measurement": "% Ca to control", "setting": "[1]", "value": "36.5 ± 0.5", "unit": "%"}]}, {"compound": "Cc1ccc2c(c1)c1c(n2CCc2ccc(C)nc2)CCN(C)C1.Cl.Cl", "note": "[Compound 6, 2,8-dimethyl-5-(2-(6-methyl-3-pyridyl)-ethyl)-2,3,4,5-tetrahydro-1H-pyrido(4,3-b)indol dihydrochloride]", "values": [{"measurement": "Amount of alive animals", "setting": "C57/B female mice [2]; age 12 months (start), 50 animals per group", "value": 50}, {"measurement": "Amount of alive animals", "setting": "C57/B female mice [2]; age 13 months", "value": 50}, {"measurement": "Amount of alive animals", "setting": "C57/B female mice [2]; age 14 months", "value": 49}, {"measurement": "Amount of alive animals", "setting": "C57/B female mice [2]; age 15 months", "value": 48}, {"measurement": "Amount of alive animals", "setting": "C57/B female mice [2]; age 16 months", "value": 47}, {"measurement": "Amount of alive animals", "setting": "C57/B female mice [2]; age 17 months", "value": 47}, {"measurement": "Amount of alive animals", "setting": "C57/B female mice [2]; age 18 months", "value": 42}, {"measurement": "Amount of alive animals", "setting": "C57/B female mice [2]; age 19 months", "value": 39}, {"measurement": "Amount of alive animals", "setting": "C57/B female mice [2]; age 20 months", "value": 35}, {"measurement": "Amount of alive animals", "setting": "C57/B female mice [2]; age 21 months", "value": 32}, {"measurement": "Amount of alive animals", "setting": "C57/B female mice [2]; age 22 months", "value": 28}, {"measurement": "Amount of alive animals", "setting": "C57/B female mice [2]; age 23 months", "value": 25}, {"measurement": "Amount of alive animals", "setting": "C57/B female mice [2]; age 24 months", "value": 18}, {"measurement": "Amount of alive animals", "setting": "C57/B female mice [2]; age 25 months", "value": 11}, {"measurement": "probability of death versus control group", "setting": "C57/B female mice [2]; all age groups, 3 mg/kg daily, significant (P<0.05) at 20-23 months", "value": "lower"}, {"measurement": "% Ca to control", "setting": "[1]", "value": "48.5 ± 2.5", "unit": "%"}, {"measurement": "% of animals that have alopecia", "setting": "C57/B female mice [3]; age 12 months (start)", "value": 0, "unit": "%"}, {"measurement": "% of animals that have alopecia", "setting": "C57/B female mice [3]; age 13 months", "value": 0, "unit": "%"}, {"measurement": "% of animals that have alopecia", "setting": "C57/B female mice [3]; age 14 months", "value": 2, "unit": "%"}, {"measurement": "% of animals that have alopecia", "setting": "C57/B female mice [3]; age 15 months", "value": 6, "unit": "%"}, {"measurement": "% of animals that have alopecia", "setting": "C57/B female mice [3]; age 16 months", "value": 10, "unit": "%"}, {"measurement": "% of animals that have alopecia", "setting": "C57/B female mice [3]; age 17 months", "value": 20, "unit": "%"}, {"measurement": "% of animals that have alopecia", "setting": "C57/B female mice [3]; age 18 months", "value": 12, "unit": "%"}, {"measurement": "% of animals that have alopecia", "setting": "C57/B female mice [3]; age 19 months", "value": 14, "unit": "%"}, {"measurement": "% of animals that have alopecia", "setting": "C57/B female mice [3]; age 20 months", "value": 34, "unit": "%"}, {"measurement": "% of animals that have alopecia", "setting": "C57/B female mice [3]; age 21 months", "value": 35, "unit": "%"}, {"measurement": "development of non-fatal pathologies, such as loss of vision and alopecia", "setting": "C57/B female mice [3]; old animals fed Dimebon 3 mg/kg daily, alopecia difference 13th-21st month P<0.05", "value": "slowing of the development"}, {"measurement": "amount of animals that had cataract versus control group", "setting": "C57/B female mice [4]; 3 mg/kg daily, P<0.05 for 13 to 20 months old mice", "value": "significantly less"}, {"measurement": "amount of animals that have cataract", "setting": "C57/B female mice [4]; age 12 months (start)", "value": 0, "unit": "%"}, {"measurement": "amount of animals that have cataract", "setting": "C57/B female mice [4]; age 13 months", "value": 0, "unit": "%"}, {"measurement": "amount of animals that have cataract", "setting": "C57/B female mice [4]; age 14 months", "value": 0, "unit": "%"}, {"measurement": "amount of animals that have cataract", "setting": "C57/B female mice [4]; age 15 months", "value": 4, "unit": "%"}, {"measurement": "amount of animals that have cataract", "setting": "C57/B female mice [4]; age 16 months", "value": 6, "unit": "%"}, {"measurement": "amount of animals that have cataract", "setting": "C57/B female mice [4]; age 17 months", "value": 6, "unit": "%"}, {"measurement": "amount of animals that have cataract", "setting": "C57/B female mice [4]; age 18 months", "value": 10, "unit": "%"}, {"measurement": "amount of animals that have cataract", "setting": "C57/B female mice [4]; age 19 months", "value": 13, "unit": "%"}, {"measurement": "amount of animals that have cataract", "setting": "C57/B female mice [4]; age 20 months", "value": 17, "unit": "%"}, {"measurement": "amount of animals that have cataract", "setting": "C57/B female mice [4]; age 21 months", "value": 25, "unit": "%"}, {"measurement": "age-related weight depletion", "setting": "[5]; 3 mg/kg daily, depletion only in 23 month old animals, variation versus control not significant (P>0.05)", "value": "No weight depletion was observed"}, {"measurement": "average weight of animals", "setting": "[5]; age 12 months (start)", "value": 24.7, "unit": "g"}, {"measurement": "average weight of animals", "setting": "[5]; age 13 months", "value": 24.7, "unit": "g"}, {"measurement": "average weight of animals", "setting": "[5]; age 14 months", "value": 24.7, "unit": "g"}, {"measurement": "average weight of animals", "setting": "[5]; age 15 months", "value": 26, "unit": "g"}, {"measurement": "average weight of animals", "setting": "[5]; age 16 months", "value": 25.5, "unit": "g"}, {"measurement": "average weight of animals", "setting": "[5]; age 17 months", "value": 24.7, "unit": "g"}, {"measurement": "average weight of animals", "setting": "[5]; age 18 months", "value": 25.5, "unit": "g"}, {"measurement": "average weight of animals", "setting": "[5]; age 19 months", "value": 26, "unit": "g"}, {"measurement": "average weight of animals", "setting": "[5]; age 20 months", "value": 26, "unit": "g"}, {"measurement": "average weight of animals", "setting": "[5]; age 21 months", "value": 25.6, "unit": "g"}, {"measurement": "average weight of animals", "setting": "[5]; age 22 months", "value": 25.1, "unit": "g"}, {"measurement": "average weight of animals", "setting": "[5]; age 23 months", "value": 24.7, "unit": "g"}, {"measurement": "average weight of animals", "setting": "[5]; age 24 months", "value": 24, "unit": "g"}, {"measurement": "average weight of animals", "setting": "[5]; age 25 months", "value": 23.7, "unit": "g"}]}, {"compound": "c1ccc(CN2CCc3[nH]c4ccccc4c3C2)cc1", "note": "[Compound 3, 2-benzyl-2,3,4,5-tetrahydro-1H-pyrido(4,3-b)indol]", "values": [{"measurement": "% Ca to control", "setting": "[1]", "value": "28.5 ± 2.5", "unit": "%"}]}, {"compound": "CN1CCc2[nH]c3ccccc3c2C1", "note": "[Compound 7, 2-methyl-2,3,4,5-tetrahydro-1H-pyrido(4,3-b)indol]", "values": [{"measurement": "% Ca to control", "setting": "[1]", "value": "35.5 ± 2.5", "unit": "%"}]}, {"compound": "CN1CCc2[nH]c3ccc(Br)cc3c2C1.Cl", "note": "[Compound 9, 2-methyl-8-bromo-2,3,4,5-tetrahydro-1H-pyrido(4,3-b)indol hydrochloride]", "values": [{"measurement": "% Ca to control", "setting": "[1]", "value": "30.0 ± 3.5", "unit": "%"}]}]}
